Test results: patent US20230242964A1, “BIODEGRADABLE BIOCHEMICAL SENSOR FOR DETERMINING THE PRESENCE AND/OR THE LEVEL OF PESTICIDES OR ENDOCRINE DISRUPTORS: METHOD AND COMPOSITION” (priority 2018, published 2023)

Experiments:
E. coli EPSP Synthase = E. coli EPSP Synthase (Escherichia coli, UniProt P0A6D3); assay: EPSP synthase network #2B plugged to phosphate detection
Excerpt: The entry of the network is composed of: the EPSP synthase that uses the phospho-enol pyruvate (PEP) and the 3-phospho Shikimate to produce 5-O-(1-caroxyvinyl)-3-phosphoshikimate and inorganic phosphate.
Then 2 different networks have been tested: • One that converts the inorganic phosphate (Pi): Pi is combined with Inosine in the presence of the purine nucleoside phosphorylase to give Hypoxanthine. The Hypoxantine lead to Xanthine and H2O2 in the presence of Xanthine Oxidase. The Horseradish peroxidase uses the H2O2 to convert the O-dianisidine or the Amplex Red and give a colorimetric or fluorimetric signal detectable.
First, the network has been tested in liquid buffer without vesicle or gel. […] Reaction was followed for 1 hour at 25° C. by registering the absorbance at 450 nm on a spectrophotometer. • One that converts the 5-O-(1-caroxyvinyl)-3-phosphoshikimate produced by the EPSP synthase: 5-O-(1-caroxyvinyl)-3-phosphoshikimate is metabolized by the Chorismate Synthase to give chorismate. This Chorismate is then transformed in pyruvate by the chorismate Lyase. Finaly the pyruvate is used by the Lactate dehydrogenase in the presence of NADH to give lactate and NAD+. The NADH consumption is followed by the change of fluorescence emission at 445 nm (Excitation at 340 nm)—or change of absorbance at 340 nm on a spectrophotometer. • 3.
The reaction was followed by the change of fluorescence on a fluorimeter (Excitation at 530 nm/Emission at 590 nm) or by the change of absorbance at 450 nm on a spectrophotometer. It allowed us to determine the activity of the EPSP synthase toward Phosphoenol Pyruvate (PEP).

BliGO SCF4 mutant = settings: cited from earlier work
[1] = biological target: T1, Bacillus subtilis H244K Glycine/Glyphosate oxidase (Bacillus subtilis, UniProt O31616, H244K); assay: Glycine biochemical network #3, Amplex red/HRP fluorescence and colorimetric readout; settings: glyphosate at 100 μM, Tris buffer 50 mM pH 7,5
T1 construct: purchased Creative enzyme NATE-1674
Excerpt: It allowed us to detect the glycine.

Chain of E. coli EPSP Synthase (P0A6D3 whole entry): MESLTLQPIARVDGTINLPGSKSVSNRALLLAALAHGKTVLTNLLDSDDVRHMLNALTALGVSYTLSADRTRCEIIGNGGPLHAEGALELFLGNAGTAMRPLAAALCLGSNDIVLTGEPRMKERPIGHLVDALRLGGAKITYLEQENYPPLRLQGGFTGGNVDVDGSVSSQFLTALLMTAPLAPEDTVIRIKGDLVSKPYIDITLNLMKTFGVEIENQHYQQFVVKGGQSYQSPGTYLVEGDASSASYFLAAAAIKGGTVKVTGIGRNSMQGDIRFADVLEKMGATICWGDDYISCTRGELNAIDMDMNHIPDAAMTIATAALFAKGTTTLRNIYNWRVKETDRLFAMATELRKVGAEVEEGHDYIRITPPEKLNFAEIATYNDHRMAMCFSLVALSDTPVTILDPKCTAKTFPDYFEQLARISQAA
T1 sequence (O31616 whole entry H244K): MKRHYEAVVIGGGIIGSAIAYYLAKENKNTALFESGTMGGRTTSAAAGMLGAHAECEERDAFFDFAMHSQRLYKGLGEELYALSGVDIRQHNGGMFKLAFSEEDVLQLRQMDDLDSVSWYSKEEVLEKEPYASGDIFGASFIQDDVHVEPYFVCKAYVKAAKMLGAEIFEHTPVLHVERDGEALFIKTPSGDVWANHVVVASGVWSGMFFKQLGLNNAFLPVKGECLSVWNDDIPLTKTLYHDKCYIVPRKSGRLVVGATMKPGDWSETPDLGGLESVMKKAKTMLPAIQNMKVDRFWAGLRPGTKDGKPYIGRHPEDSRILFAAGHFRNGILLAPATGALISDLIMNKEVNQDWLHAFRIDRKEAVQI

## C=C(OP(=O)(O)O)C(=O)O [PEP, phosphoenolpyruvate]
E. coli EPSP Synthase; 50 mM Hepes pH 7, 25° C.
  EPSP affinity for PEP: 14 µM
  Vmax of EPSP synthase toward PEP: 1.026e-08 mol/L/s

## NCC(=O)O [glycine]
BliGO SCF4 mutant; BliGO SCF4 mutant vs WT
  decrease of activity to glycine compared to WT: 113 fold

## O=C(O)CNCP(=O)(O)O [glyphosate]
E. coli EPSP Synthase; glyphosate 0 to 2 mM, concentration dependent
  effect on the EPSP synthase: inhibitory effect
[1]
  detection by network #3: absence of detection
BliGO SCF4 mutant; BliGO SCF4 mutant vs WT
  increase of affinity toward glyphosate compared to WT: 8 fold
BliGO SCF4 mutant; BliGO SCF4 mutant
  affinity toward glyphosate: 1.58 mM
